Measurements as given in ChEMBL document CHEMBL3243927, “5,6,7,8-Tetrahydroquinolines. 5. Antiulcer and antisecretory activity of 5,6,7,8-tetrahydroquinolinethioureas and related heterocycles” (J Med Chem, 1977).
Activity calls are given as the source filed them. The calls are words filed in the database; no cut-off is given here.

Tests used:
[1] = tested on: Rattus norvegicus; experiment: Antiulcer activity in Sprague-Dawley rat assessed as inhibition of cold-restraint stress-induced gastric erosion at 30 mg/kg, po after 3 hrs; type: functional, organism-based; design: dose 30 mg/kg; conditions: Stomach
[2] = tested on: Rattus norvegicus; experiment: Antisecretory activity in pylorus-ligated Sprague-Dawley rat assessed as inhibition of gastric juice secretion at 30 mg/kg administered intraduodenally after 4 hrs by potentiographic titration analysis relative to control; type: functional, organism-based; design: dose 30 mg/kg
[3] = tested on: Rattus norvegicus; experiment: Antiulcer activity in Sprague-Dawley rat assessed as inhibition of cold-restraint stress-induced gastric erosion at 100 mg/kg, po after 3 hrs; type: functional, organism-based; design: dose 100 mg/kg; conditions: Stomach
[4] = tested on: Rattus norvegicus; experiment: Antisecretory activity in pylorus-ligated Sprague-Dawley rat assessed as inhibition of gastric juice secretion at 10 mg/kg administered intraduodenally after 4 hrs by potentiographic titration analysis; type: functional, organism-based; design: dose 10 mg/kg
[5] = tested on: Rattus norvegicus; experiment: Toxicity in po dosed Sprague-Dawley rat assessed as mortality; type: organism-based; conditions: in vivo

Row | SMILES | Activity [1] | Activity [2] | Activity [3] | Activity [4] | Activity [5]
1 | CNC(=S)N1CCc2cccnc21 | Active | Active |  |  | 
2 | CNC(=S)N1CCCc2cccnc21 | Active | Active |  |  | 
3 | CNC(=S)NC1CCCc2ncc(C)cc21 (configuration not stated) |  | inactive | inactive |  | 
4 | CCCCNC(=S)N1CCc2cccnc21 |  | inactive | inactive |  | 
5 | Cc1cnc2c(c1)CCCC2NC(=S)NC(=O)c1ccccc1 (configuration not stated) |  | inactive | inactive |  | 
6 | CNC(=S)N1CCc2ncc(C)cc2C1 |  | inactive | Active |  | 
7 | CNC(=S)NC1CCCc2cc(C)cnc21 (configuration not stated) |  |  | Active | Active | 
8 | CNC(=S)NC(C)C1CCCc2cc(C)cnc21 (configuration not stated) |  | inactive | inactive |  | 
9 | O=C(NC(=S)N1CCc2cccnc21)c1ccccc1 |  | inactive | inactive |  | 
10 | CN/C(=N/C(N)=S)NC1CCCc2cc(C)cnc21 (configuration not stated) |  | inactive | Active |  | 
11 | S=C1NCc2cccnc2N1 |  | inactive | inactive |  | 
12 | Cc1cnc2c(c1)C(NC(=S)Nc1ccccc1)CCC2 (configuration not stated) |  | Active | inactive |  | 
13 | CNC(=S)N1CCCCc2cccnc21 |  |  | inactive | Active | 
14 | NC(=S)N1CCc2cccnc21 |  |  |  | Active | Toxic
15 | CN/C(=N/C#N)NC1CCCc2cc(C)cnc21 (configuration not stated) |  | inactive | inactive |  | 
16 | CS/C(=N/C#N)NC1CCCc2cc(C)cnc21 (configuration not stated) |  |  | inactive |  | 
17 | Cc1cnc2c(c1)CCCC2NC(N)=S (configuration not stated) |  | Active | Active |  | 
18 | CNC(=S)N1CCCc2ncccc21 | Active | Active |  |  | 
19 | Cc1cnc2c(c1)C(NC(=S)NC(=O)c1ccccc1)CCC2 (configuration not stated) |  | inactive |  |  | Toxic
20 | NC(=S)N1CCCCc2cccnc21 |  | Active | inactive |  | 
21 | Cc1cnc2c(c1)C(NC(N)=S)CCC2 (configuration not stated) |  |  | inactive |  | 
22 | CN/C(=N/C(N)=O)NC1CCCc2cc(C)cnc21 (configuration not stated) |  | inactive | inactive |  | 
